SMILES strings stand for the structures.

Results on 1 compound are retold here after US20230321123A1, “INHIBITORS OF PSEUDOMONAS AERUGINOSA VIRULENCE FACTOR LasB” (Helmholtz-Zentrum Für Infektionsforschung GmbH, priority 2020, published 2023).

The target of one data set is T1, MMP-7 (Homo sapiens, UniProt P09237).
T1 sequence (P09237 95-267): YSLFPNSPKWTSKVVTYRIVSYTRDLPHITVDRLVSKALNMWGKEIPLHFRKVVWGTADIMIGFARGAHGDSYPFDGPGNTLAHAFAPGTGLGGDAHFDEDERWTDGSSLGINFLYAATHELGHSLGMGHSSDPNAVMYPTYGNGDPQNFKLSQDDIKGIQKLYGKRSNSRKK
As to the kind of experiment: Selectivity against human off-targets: MMP-7. Conditions: read-out: Inhibition [%] MMP-7. Type of data set: biochemical. From the text: (§1) The inhibition of zinc-containing human enzymes is described frequently for LasB inhibitors and poses a serious difficulty in the development of selective compounds. Particularly, the inhibition of matrix metalloproteases (MMPs) should be avoided. To further investigate this issue, three derivatives (the compounds of examples 1, 5 and 8) have been tested for their selectivity against several human off-targets, including six MMPs, ADAM17 (TACE), HDAC-3 and HDAC-8 (Table 4). The selectivity of the compounds is particularly high for MMPs and HDACs, whereas the inhibition of ADAM17 was considerably stronger.

The target in a further data set is MMP-3 (Homo sapiens, UniProt P08254). As to the kind of experiment: Selectivity against human off-targets: MMP-3. Type of data set: biochemical. The conditions noted are these: read-out: Inhibition [%] MMP-3.
MMP-3, sequence (P08254 100-477): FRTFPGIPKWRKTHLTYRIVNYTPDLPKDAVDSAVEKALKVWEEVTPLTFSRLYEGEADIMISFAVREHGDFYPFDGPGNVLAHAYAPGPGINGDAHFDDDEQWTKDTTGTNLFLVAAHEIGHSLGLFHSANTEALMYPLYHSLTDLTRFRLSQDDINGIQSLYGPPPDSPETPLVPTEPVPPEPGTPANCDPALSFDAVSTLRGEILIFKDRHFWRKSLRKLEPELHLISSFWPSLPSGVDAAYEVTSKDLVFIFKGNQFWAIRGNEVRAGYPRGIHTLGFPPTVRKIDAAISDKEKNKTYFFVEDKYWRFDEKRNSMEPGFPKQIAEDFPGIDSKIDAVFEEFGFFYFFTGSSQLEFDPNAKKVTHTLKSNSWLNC
A short description of a further data set: Cytotoxicity HEK293. Type of data set: cell-based. The conditions noted are these: human; HEK293. Here is the method:
(§2) The compounds of examples 1 and 5 were not toxic against the cell lines HepG2, HEK293 and A549 (Table 5). Additionally, the inhibitory effect against P. aeruginosa PA14 was evaluated to exclude an antibacterial effect of the compounds of the present invention. This is important as it was the aim to target virulence and not viability of the bacteria. […]

Another data set concerns the target CYP2D6 (Homo sapiens, UniProt P10635). As to the kind of experiment: CYP inhibition CYP2D6. Type of data set: in vitro ADME. The text has this: (§3) As the compound of example 2 has shown an impressive activity in the in vitro LasB inhibition assay, high selectivity over a broad spectrum of human enzymes and no signs of cytotoxicity in vitro, it has been subjected to a more advanced safety screening (Table 9).

Another data set in a line: Cytotoxicity A549. The conditions noted are these: human; A549. Type of data set: cell-based. The protocol:
as §2

In the next data set the target is CYP3A4 (Homo sapiens, UniProt P08684). As to the kind of experiment: CYP inhibition CYP3A4. Format: in vitro ADME.
CYP3A4, sequence (P08684 whole entry): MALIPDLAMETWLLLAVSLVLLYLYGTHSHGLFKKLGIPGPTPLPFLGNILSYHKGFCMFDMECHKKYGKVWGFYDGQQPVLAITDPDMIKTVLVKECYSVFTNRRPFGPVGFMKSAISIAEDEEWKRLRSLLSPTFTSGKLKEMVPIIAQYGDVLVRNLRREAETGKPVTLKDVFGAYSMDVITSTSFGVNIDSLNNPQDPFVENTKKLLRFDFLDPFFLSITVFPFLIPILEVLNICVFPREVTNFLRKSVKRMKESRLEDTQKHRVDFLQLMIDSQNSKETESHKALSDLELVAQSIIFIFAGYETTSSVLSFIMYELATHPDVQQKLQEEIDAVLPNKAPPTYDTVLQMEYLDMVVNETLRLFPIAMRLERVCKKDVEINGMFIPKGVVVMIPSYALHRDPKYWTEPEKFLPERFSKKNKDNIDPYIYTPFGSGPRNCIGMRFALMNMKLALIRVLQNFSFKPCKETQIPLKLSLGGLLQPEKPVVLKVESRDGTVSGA
From the text: as §3

A further data set has as its target MMP-8 (Homo sapiens, UniProt P22894). As to the kind of experiment: Selectivity against human off-targets: MMP-8. Format: biochemical. Conditions: read-out: Inhibition [%] MMP-8.
From the text: as §1

A short description of data set [1]: Pharmacokinetic (PK) studies in mice. Conditions: 10 mg/kg. Format: in vivo. The protocol:
Moreover, the compound of example 2 was subjected to pharmacokinetic (PK) studies in mice (Table 10). Injected intravenously (i.v.) at a dose of 10 mg/kg, it is detectable in blood for 2 h.

The target of the next data set is T2, CYP1A (Homo sapiens, UniProt P05177).
T2 sequence (P05177 2-516): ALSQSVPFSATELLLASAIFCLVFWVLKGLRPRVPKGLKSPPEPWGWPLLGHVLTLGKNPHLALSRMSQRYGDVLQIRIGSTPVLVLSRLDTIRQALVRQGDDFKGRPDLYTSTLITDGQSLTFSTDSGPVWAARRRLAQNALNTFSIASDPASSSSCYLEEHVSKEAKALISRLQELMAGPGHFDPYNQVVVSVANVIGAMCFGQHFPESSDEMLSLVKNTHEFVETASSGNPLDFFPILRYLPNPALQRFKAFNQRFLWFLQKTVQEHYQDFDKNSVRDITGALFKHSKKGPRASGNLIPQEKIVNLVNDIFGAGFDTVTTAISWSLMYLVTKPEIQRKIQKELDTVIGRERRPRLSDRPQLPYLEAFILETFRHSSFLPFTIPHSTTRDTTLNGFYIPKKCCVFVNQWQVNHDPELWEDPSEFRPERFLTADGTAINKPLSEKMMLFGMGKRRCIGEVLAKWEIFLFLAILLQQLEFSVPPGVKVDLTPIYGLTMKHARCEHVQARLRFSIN
Nature of the data set: CYP inhibition CYP1A. Format: in vitro ADME.
From the text: as §3

CYP2D6, sequence (P10635 whole entry): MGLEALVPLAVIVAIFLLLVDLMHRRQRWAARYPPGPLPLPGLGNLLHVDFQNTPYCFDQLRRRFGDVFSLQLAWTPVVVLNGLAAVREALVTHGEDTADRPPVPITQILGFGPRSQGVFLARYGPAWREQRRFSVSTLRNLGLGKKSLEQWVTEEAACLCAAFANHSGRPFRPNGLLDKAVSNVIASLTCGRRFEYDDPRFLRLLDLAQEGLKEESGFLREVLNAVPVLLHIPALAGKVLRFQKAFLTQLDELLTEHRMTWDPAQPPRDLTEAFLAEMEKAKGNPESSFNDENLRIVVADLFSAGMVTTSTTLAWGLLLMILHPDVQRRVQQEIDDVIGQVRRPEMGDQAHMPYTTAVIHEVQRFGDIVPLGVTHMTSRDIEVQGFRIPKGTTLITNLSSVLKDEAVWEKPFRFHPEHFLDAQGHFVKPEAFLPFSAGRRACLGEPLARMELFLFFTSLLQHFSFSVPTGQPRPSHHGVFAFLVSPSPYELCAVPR
MMP-8, sequence (P22894 101-467): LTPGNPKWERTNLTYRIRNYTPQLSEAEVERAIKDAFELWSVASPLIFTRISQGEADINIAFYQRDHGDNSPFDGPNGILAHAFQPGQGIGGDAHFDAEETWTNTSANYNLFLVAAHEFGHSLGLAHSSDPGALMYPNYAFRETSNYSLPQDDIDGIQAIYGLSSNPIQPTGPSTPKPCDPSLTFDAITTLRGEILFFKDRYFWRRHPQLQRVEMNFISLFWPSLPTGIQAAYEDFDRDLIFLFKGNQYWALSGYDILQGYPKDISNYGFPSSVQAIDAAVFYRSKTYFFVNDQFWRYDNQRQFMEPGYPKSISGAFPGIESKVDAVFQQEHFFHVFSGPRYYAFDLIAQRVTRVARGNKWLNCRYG

The inhibition is the share of the control response that was lost under treatment. A word on the IC50: it is the concentration that gives 50% inhibition. Low values mean inhibition by little substance, high ones a need for much substance. As a reminder, the CL/F is clearance divided by bioavailability, as obtained after extravascular dosing. One may read the AUC(0-t) as the area under the concentration-time curve up to a stated or last time point. As a reminder, the Cmax is the peak of the concentration-time curve. In general, half-life refers to how long it takes for the measured level to halve. Lower therefore signals fast loss. Broadly, the Tmax is the time at which the peak concentration occurs. Turning to `Cc1ccc(NC(=O)C(S)CC(C)C)cc1` (stereo not drawn) [Example 2, 2-Mercapto-4-methyl-N-(p-tolyl)pentanamide], the inhibition at 100 µM at MMP-7, on MMP-3 and on MMP-8 was below 10% in each case. The IC50 is above 50 µM in “Cytotoxicity HEK293”; 22.3 µM against CYP2D6; above 100 µM in the data set “Cytotoxicity A549”; 15 µM against CYP3A4; above 25 µM against CYP1A. Besides, the CL/F in data set [1] (i.v.) was determined as 505 ± 119 mL/min/kg. Further, the V/F in [1] (i.v.) amounted to 45.5 ± 2.8 L/kg. In addition, the “time detectable in blood” value in [1] (i.v.) is recorded as 2 h. In addition, the AUC(0-t) in [1] (mouse, blood, iv) was determined as 241 ± 22 ng·h/mL. This compound returned a Cmax in data set [1] (mouse, blood, iv) of 200 ng/mL. This compound displayed a half-life in data set [1] (mouse, blood, iv) of 50 min. For the same compound, in data set [1] (mouse, blood, iv, first measuring point), the Tmax was 15 min.
